# Molecular target: T1, hFXR (Homo sapiens, UniProt Q96RI1)
# T1 construct: expressed in transfected cells; host or cells: CV-1 cells
# T1 sequence (Q96RI1 1-486): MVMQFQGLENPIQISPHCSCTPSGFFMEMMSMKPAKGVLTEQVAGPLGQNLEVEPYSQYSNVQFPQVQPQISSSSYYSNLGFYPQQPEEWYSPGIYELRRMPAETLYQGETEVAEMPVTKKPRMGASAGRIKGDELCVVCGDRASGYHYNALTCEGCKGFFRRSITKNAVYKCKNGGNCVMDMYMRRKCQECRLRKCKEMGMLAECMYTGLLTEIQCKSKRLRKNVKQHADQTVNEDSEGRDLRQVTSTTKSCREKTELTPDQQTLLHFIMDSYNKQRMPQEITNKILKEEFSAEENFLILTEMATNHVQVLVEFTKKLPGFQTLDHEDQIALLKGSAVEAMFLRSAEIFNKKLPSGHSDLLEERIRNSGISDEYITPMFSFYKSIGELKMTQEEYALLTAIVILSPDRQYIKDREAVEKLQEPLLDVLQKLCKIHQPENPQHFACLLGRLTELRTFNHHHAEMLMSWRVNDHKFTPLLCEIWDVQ
# T1 sequence (P19793 1-462 partner): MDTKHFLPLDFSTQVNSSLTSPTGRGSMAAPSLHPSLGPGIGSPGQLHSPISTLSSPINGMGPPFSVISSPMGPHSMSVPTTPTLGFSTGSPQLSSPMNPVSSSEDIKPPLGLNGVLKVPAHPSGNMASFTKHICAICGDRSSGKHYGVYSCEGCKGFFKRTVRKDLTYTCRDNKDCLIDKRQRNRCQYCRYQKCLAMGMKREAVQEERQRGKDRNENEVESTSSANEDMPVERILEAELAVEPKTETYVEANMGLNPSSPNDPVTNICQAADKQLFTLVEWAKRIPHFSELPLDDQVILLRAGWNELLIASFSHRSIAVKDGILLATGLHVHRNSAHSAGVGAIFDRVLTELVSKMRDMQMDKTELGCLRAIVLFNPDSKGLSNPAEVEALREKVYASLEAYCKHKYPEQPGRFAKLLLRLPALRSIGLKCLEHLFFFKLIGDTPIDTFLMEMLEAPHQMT
# Assay: In Vitro FXR Assay (TK): TK-ECRE-luc reporter in transfected CV-1 cells
# Assay type: cell-based
# Details: 18 hrs incubation, luminescence
# Method: Example B-1: In Vitro FXR Assay (TK)
# CV-1 cells were seeded at a density of 2,000,000 cells in a T175 flask with DMEM+10% charcoal double-stripped FBS and incubated at 37° C. in 5% CO2 for 18 h (O/N).
# After 18 h of incubation, the medium in the T175 flask was changed with fresh DMEM+10% charcoal super-stripped serum. In a polypropylene tube, 2500 μL OptiMEM (Life Technologies, Cat #31985-062) was combined with expression plasmids for hFXR, hRXR, TK-ECRE-luc and pCMX-YFP. The tube was then briefly vortexed and incubated at room temperature for 5 minutes. Transfection reagent (X-tremeGENE HP from Roche, Cat #06 366 236 001) was added to the OptiMEM/plasmid mixture vortexed and incubated at room temperature for 20 minutes. Following incubation, the transfection reagent/DNA mixture complex was added to cells in the T175 flask and the cells were incubated at 37° C. in 5% CO2 for 18 h (O/N).
# Compounds were serially diluted in DMSO and added to transfected CV-1 cells. The cells were then incubated for 18 hrs. The next day cells were lysed and examined for luminescence.
row,EC50,Structure (SMILES)
1,≤ 50 nM,"COCC(=O)N[C@H]1CC[C@H](C(=O)N(CC23CCC(c4ccc(OC)c(C)c4)(CC2)CC3)c2cc(-c3cnn(C(C)C)c3)ccn2)CC1 [Compound 9.01, trans-N-(4-(1-Isopropyl-1H-pyrazol-4-yl)pyridin-2-yl)-N-((4-(4-methoxy-3-methylphenyl)bicyclo[2.2.2]octan-1-yl)methyl)-4-(2-methoxyacetamido)cyclohexanecar-boxamide]"
2,≤ 50 nM,"COC(=O)N[C@H]1CC[C@H](C(=O)N(CC23CCC(c4ccc(OC)c(C)c4)(CC2)CC3)c2cc(-c3cnn(C(C)C)c3)ccn2)CC1 [Compound 8, Methyl trans-(4-((4-(1-isopropyl-1H-pyrazol-4-yl)pyridin-2-yl)((4-(4-methoxy-3-methylphenyl)bicyclo[2.2.2]octan-1-yl)methyl)carbamoyl)cyclohexyl)carbamate]"
3,≤ 50 nM,"COc1ccc([C@H]2CC[C@H](CN(c3cc(-c4cnc(C5CC5)s4)ccn3)C(=O)[C@H]3CC[C@H](OC(=O)NC4COC4)CC3)CC2)cc1C [Compound 2.54, trans-4-((4-(2-Cyclopropylthiazol-5-yl)pyridin-2-yl)(((trans)-4-(4-methoxy-3-methylphenyl)cyclohexyl)methyl)carbamoyl)cyclohexyl oxetan-3-ylcarbamate]"
4,≤ 50 nM,"COc1ccc(C23CCC(CN(c4cc(-c5coc(C6CC6)n5)ccn4)C(=O)[C@H]4CC[C@H](OC(=O)N5CC(O)C5)CC4)(CC2)CC3)cc1C [Compound 4.02, 4-((4-(2-Cyclopropyloxazol-4-yl)pyridin-2-yl)((4-(4-methoxy-3-methylphenyl)bicyclo[2.2.2]octan-1-yl)methyl)carbamoyl) cyclohexyl 3-hydroxyazetidine-trans-1-carboxylate]"
5,≤ 50 nM,"COc1ccc([C@H]2CC[C@H](CN(c3cc(-c4cnn(C(C)C)c4)ccn3)C(=O)[C@H]3CC[C@H](OC(=O)NCC(C)(C)O)CC3)CC2)cc1C [Compound 2.04, trans-4-((4-(1-Isopropyl-1H-pyrazol-4-yl)pyridin-2-yl) ((trans-4-(4-methoxy-3-methylphenyl)cyclohexyl)methyl)carbamoyl) cyclohexyl(2-hydroxy-2-methylpropyl)carbamate]"
6,≤ 50 nM,"COc1ccc([C@H]2CC[C@H](CN(c3cc(-c4coc(C(C)C)n4)ccn3)C(=O)[C@H]3CC[C@H](OC(=O)NC(C)C)CC3)CC2)cc1C [Compound 2.44, trans-4-((4-(2-Isopropyloxazol-4-yl)pyridin-2-yl)(((trans)-4-(4-methoxy-3-methylphenyl)cyclohexyl)methyl)carbamoyl) cyclohexyl isopropylcarbamate]"
7,≤ 50 nM,"COc1ccc(C23CCC(CN(c4cc(-c5coc(C6CC6)n5)ccn4)C(=O)[C@H]4CC[C@H](NC(C)=O)CC4)(CC2)CC3)cc1C [Compound 9.09, (trans)-4-Acetamido-N-(4-(2-cyclopropyloxazol-4-yl)pyridin-2-yl)-N-((4-(4-methoxy-3-methylphenyl)bicyclo[2.2.2]octan-1-yl)methyl)cyclohexanecarboxamide]"
8,≤ 50 nM,"COc1ncc([C@H]2CC[C@H](CN(c3cc(-c4coc(C5CC5)n4)ccn3)C(=O)[C@H]3CC[C@H](OC(=O)N4CC(N(C)C)C4)CC3)CC2)cc1Cl [Compound 1.06, trans-4-((((trans)-4-(5-Chloro-6-methoxypyridin-3-yl)cyclohexyl)methyl)(4-(2-cyclopropyloxazol-4-yl)pyridin-2-yl)carbamoyl)cyclohexyl 3-(dimethylamino)azetidine-1-carboxylate]"
9,1000 to 10000 nM,"COc1ccc(C23CCC(CN(c4cc(-c5cnn(C6CC[S+]([O-])CC6)c5)ccn4)C(=O)[C@H]4CC[C@H](OC(=O)N5CC(O)C5)CC4)(CC2)CC3)cc1C (stereo partly drawn) [Compound 26.22, 4-(((4-(4-Methoxy-3-methylphenyl)bicyclo[2.2.2]octan-1-yl)methyl)(4-(1-(1-oxidotetrahydro-2H-thiopyran-4-yl)-1H-pyrazol-4-yl)pyridin-2-yl)carbamoyl)cyclohexyl trans-3-hydroxyazetidine-1-carboxylate]"
10,≤ 50 nM,"COc1ccc([C@H]2CC[C@H](CN(c3cc(-c4coc(C5CC5)n4)ccn3)C(=O)[C@H]3CC[C@H](OC(=O)NC(C)C)CC3)CC2)cc1C [Compound 2.46, trans-4-((4-(2-Cyclopropyloxazol-4-yl)pyridin-2-yl)((trans-4-(4-methoxy-3-methylphenyl)cyclohexyl)methyl)carbamoyl)cyclohexyl isopropylcarbamate]"
11,≤ 50 nM,"COc1ccc([C@H]2CC[C@H](CN(c3cc(-c4coc(C(C)C)n4)ccn3)C(=O)[C@H]3CC[C@H](OC(=O)N4CC(O)C4)CC3)CC2)cc1C [Compound 2.24, trans-4-((4-(2-Isopropyloxazol-4-yl)pyridin-2-yl)(((trans)-4-(4-methoxy-3-methylphenyl)cyclohexyl)methyl)carbamoyl) cyclohexyl 3-hydroxyazetidine-1-carboxylate]"
12,≤ 50 nM,"COc1ccc(C23CCC(CN(c4nccc(-c5cnn(C(C)C)c5)n4)C(=O)[C@H]4CC[C@H](OC(=O)N5CC(O)C5)CC4)(CC2)CC3)cc1C [Compound 4.60, 4-((4-(1-Isopropyl-1H-pyrazol-4-yl)pyrimidin-2-yl)((4-(4-methoxy-3-methylphenyl)bicyclo [2.2.2]octan-1-yl)methyl)carbamoyl)(trans-cyclohexyl) 3-hydroxyazetidine-1-carboxylate]"
13,50 to 1000 nM,"COc1ccc([C@H]2CC[C@H](CN(c3cccc(-c4cnn(C(C)C)c4)c3)C(=O)[C@H]3CC[C@H](CNC(=O)C(C)C)CC3)CC2)cc1C [Compound 12.02, (trans)-4-(Isobutyramidomethyl)-i-(3-(1-isopropyl-1H-pyrazol-4-yl)phenyl)-N-(((trans)-4-(4-methoxy-3-methylphenyl)cyclohexyl)methyl) cyclohexanecarboxamide]"
14,≤ 50 nM,"COCC(=O)N[C@H]1CC[C@H](C(=O)N(CC23CCC(c4ccc(OC)c(C)c4)(CC2)CC3)c2cc(-c3coc(C4CC4)n3)ccn2)CC1 [Compound 9.10, (trans)-N-(4-(2-Cyclopropyloxazol-4-yl)pyridin-2-yl)-N-((4-(4-methoxy-3-methylphenyl)bicyclo[2.2.2]octan-1-yl)methyl)-4-(2-methoxyacetamido)cyclohexanecar-boxamide]"
15,≤ 50 nM,"COCC(=O)N[C@H]1CC[C@H](C(=O)N(CC23CCC(c4ccc(OC)c(C)c4)(CC2)CC3)c2cc(-c3cnc(C(C)C)s3)ccn2)CC1 [Compound 9.05, (trans)-N-(4-(2-Isopropylthiazol-5-yl)pyridin-2-yl)-N-((4-(4-methoxy-3-methylphenyl)bicyclo[2.2.2]octan-1-yl)methyl)-4-(2-methoxyacetamido)cyclohexanecar-boxamide]"
16,≤ 50 nM,"CCn1cc(-c2ccnc(N(C[C@H]3CC[C@H](c4ccc(OC)c(C)c4)CC3)C(=O)[C@H]3CC[C@H](OC(=O)N4CC(O)C4)CC3)c2)cn1 [Compound 2.22, trans-4-((4-(1-Ethyl-1H-pyrazol-4-yl)pyridin-2-yl) ((trans-4-(4-methoxy-3-methylphenyl)cyclohexyl)methyl)carbamoyl) cyclohexyl3-hydroxyazetidine-1-carboxylate]"
17,≤ 50 nM,"COc1ccc([C@H]2CC[C@H](CN(c3cc(-c4cnc(C(C)C)s4)ccn3)C(=O)[C@H]3CC[C@H](OC(=O)NC4COC4)CC3)CC2)cc1C [Compound 2.55, trans-4-((4-(2-Isopropylthiazol-5-yl)pyridin-2-yl)(((trans)-4-(4-methoxy-3-methylphenyl)cyclohexyl)methyl)carbamoyl)cyclohexyl oxetan-3-ylcarbamate]"
18,≤ 50 nM,"COCCOC(=O)N[C@H]1CC[C@H](C(=O)N(C[C@H]2CC[C@H](c3ccc(OC)c(C)c3)CC2)c2cccc(-c3cnn(C(C)C)c3)c2)CC1 [Compound 6.04, 2-Methoxyethyl (trans-4-((3-(1-isopropyl-1H-pyrazol-4-yl)phenyl)((trans-4-(4-methoxy-3-methylphenyl)cyclohexyl)meth-yl)carbamoyl)cyclohexyl)carbamate]"
